Measured values reported in patent US20100041699A1, “MICROCRYSTALLINE (5-FLUORO-2-METHYL-3-QUINOLIN-2-YLMETHYL-INDOL-1-YL) ACETIC ACID” (OXAGEN LIMITED, priority 2005, published 2010).

Columns and labels:
Assay type in all cases: physicochemical
[1] = Crystal sizes measured by laser diffraction; conditions: for Particle Diameter, 10% particles under given diameter / Particle Diameter, 50% particles under given diameter / Particle Diameter, 90% particles under given diameter: laser diffraction; for Particle Diameter, 10% particles under given diameter: 10% of particles under given diameter; for Particle Diameter, 50% particles under given diameter: 50% of particles under given diameter; for Particle Diameter, 90% particles under given diameter: 90% of particles under given diameter
Method: The sizes of the crystals of one batch of Product A ((5-fluoro-2-methyl-3-quinolin-2-ylmethylindo-1-yl)-acetic acid recrystallised from DMSO/water as described above in Example 1, step 4) and three batches of Product B ((5-fluoro-2-methyl-3-quinolin-2-ylmethylindo-1-yl)-acetic acid recrystallised from DMSO/water and then treated with potassium carbonate and citric acid as described above in Example 1, step 4a) were measured by laser diffraction and compared.

pKa of the acid = assay: pKa of the acid
Description: The term “weak acid” as used in step (ii) of the method is a term known in the art, and means an acid that partially dissociates in an aqueous solution.

Solubility in solvents = conditions: in most solvents

SMILES: Cc1c(Cc2ccc3ccccc3n2)c2cc(F)ccc2n1CC(=O)O [Product A, (5-fluoro-2-methyl-3-quinolin-2-ylmethylindo-1-yl)-acetic acid]
- Particle Diameter, 10% particles under given diameter ([1]; listed as A): 11.93 μm
- Particle Diameter, 10% particles under given diameter ([1]; listed as product A): less than 10 μm
- Particle Diameter, 50% particles under given diameter [1]: 30.13 μm
- Particle Diameter, 90% particles under given diameter ([1]; listed as A): 52.13 μm

SMILES: Cc1c(Cc2ccc3ccccc3n2)c2cc(F)ccc2n1CC(=O)O [Product B, (5-fluoro-2-methyl-3-quinolin-2-ylmethylindo-1-yl)-acetic acid]
- Particle Diameter, 10% particles under given diameter ([1]; listed as B (Batch 1)): 0.10 μm
- Particle Diameter, 10% particles under given diameter ([1]; listed as B (Batch 2)): 0.20 μm
- Particle Diameter, 10% particles under given diameter ([1]; listed as B (Batch 3)): 0.11 μm
- Particle Diameter, 50% particles under given diameter ([1]; listed as B (Batch 1)): 0.27 μm
- Particle Diameter, 50% particles under given diameter ([1]; listed as B (Batch 2)): 0.37 μm
- Particle Diameter, 50% particles under given diameter ([1]; listed as B (Batch 3)): 0.31 μm
- Particle Diameter, 90% particles under given diameter ([1]; listed as B (Batch 1)): 0.92 μm
- Particle Diameter, 90% particles under given diameter ([1]; listed as B (Batch 2)): 0.80 μm
- Particle Diameter, 90% particles under given diameter ([1]; listed as B (Batch 3)): 1.53 μm
- Particle Diameter, 90% particles under given diameter ([1]; listed as product B): less than 2 μm

SMILES: Cc1c(Cc2ccc3ccccc3n2)c2cc(F)ccc2n1CC(=O)O [(5-fluoro-2-methyl-3-quinolin-2-ylmethyl-indol-1-yl)-acetic acid]
- pKa (pKa of the acid): 2.8
- solubility (Solubility in solvents): sparingly soluble in most solvents
- diameter of 90% of the crystals ([1]; recrystallised from DMSO/water): 50-70 μm
